Laboratory results reported in ChEMBL document CHEMBL1201862, “PubChem BioAssay data set” (2004).
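Dose response: 5 concentrations. Exposure: 48 h. Format: 96-well plates. Endpoint: linear interpolation; highest concentration if not reached. Abbreviation: GI50, concentration required for 50% inhibition of growth.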 The source made the active and inactive calls. Cut-off read from the data, not from the text of the source: active = GI50 up to about 1.1 µM and inactive = higher.

Experiments:
Assay in all cases: DTP human tumour cell line panel, 48 h
786-0 = test system: 786-0
A549 = test system: A549
BT-549 = test system: BT-549
CAKI-1 = test system: CAKI-1
CCRF-CEM = test system: CCRF-CEM
EKVX = test system: EKVX
HCC 2998 = test system: HCC 2998
HOP-62 = test system: HOP-62
IGROV-1 = test system: IGROV-1
M14 = test system: M14
MCF7 = test system: MCF7
MDA-MB-435 = test system: MDA-MB-435
Malme-3M = test system: Malme-3M
NCI-H23 = test system: NCI-H23
NCI-H522 = test system: NCI-H522
OVCAR-5 = test system: OVCAR-5
SF-295 = test system: SF-295
SK-MEL-5 = test system: SK-MEL-5
UO-31 = test system: UO-31
COLO 205 = test system: COLO 205

| SMILES | GI50 (786-0) | GI50 (A549) | GI50 (BT-549) | GI50 (CAKI-1) | GI50 (CCRF-CEM) | GI50 (EKVX) | GI50 (HCC 2998) | GI50 (HOP-62) | GI50 (IGROV-1) | GI50 (M14) | GI50 (MCF7) | GI50 (MDA-MB-435) | GI50 (Malme-3M) | GI50 (NCI-H23) | GI50 (NCI-H522) | GI50 (OVCAR-5) | GI50 (SF-295) | GI50 (SK-MEL-5) | GI50 (UO-31) | GI50 (COLO 205) |
| --- | --- | --- | --- | --- | --- | --- | --- | --- | --- | --- | --- | --- | --- | --- | --- | --- | --- | --- | --- | --- |
| O=c1c(S(=O)(=O)Oc2ccccc2)coc2cc(F)ccc12 | > 100 µM (inactive) | > 100 µM (inactive) | 37.2 µM (inactive) | > 100 µM (inactive) | 65.3 µM (inactive) | > 100 µM (inactive) | > 100 µM (inactive) | > 100 µM (inactive) | > 100 µM (inactive) | > 100 µM (inactive) | 74.8 µM (inactive) | > 100 µM (inactive) | > 100 µM (inactive) | 82.2 µM (inactive) | > 100 µM (inactive) | > 100 µM (inactive) | 30.3 µM (inactive) | > 100 µM (inactive) | 46.8 µM (inactive) |  |
| CCOc1ccc(Nc2nc(N)nc(N)c2N=O)cc1 | > 100 µM (inactive) | > 100 µM (inactive) | 45.6 µM (inactive) | 10.9 µM (inactive) | > 100 µM (inactive) | 48.4 µM (inactive) | 55.2 µM (inactive) | 50.1 µM (inactive) | 7.69 µM (inactive) | > 100 µM (inactive) | 38.4 µM (inactive) | 52.4 µM (inactive) | 49 µM (inactive) | 59.7 µM (inactive) | 55.5 µM (inactive) | > 100 µM (inactive) | > 100 µM (inactive) | 49.5 µM (inactive) | 29.9 µM (inactive) | > 100 µM (inactive) |
| Cc1ccc(-c2n[nH]c(=O)n2/N=C\c2ccc([N+](=O)[O-])cc2)cc1 | > 100 µM (inactive) | > 100 µM (inactive) | 54.1 µM (inactive) | > 100 µM (inactive) | > 32.1 µM (inactive) | > 100 µM (inactive) | > 100 µM (inactive) | 52.4 µM (inactive) | > 100 µM (inactive) | 58.2 µM (inactive) | 99.5 µM (inactive) | 35 µM (inactive) | > 100 µM (inactive) | > 100 µM (inactive) | > 100 µM (inactive) | > 100 µM (inactive) | > 100 µM (inactive) | 92.9 µM (inactive) | > 93.3 µM (inactive) | > 100 µM (inactive) |
| COc1cc(OC)c(OC)cc1/C=C/c1ccc2ccccc2n1 | > 10 µM (inactive) | > 10 µM (inactive) | 8.89 µM (inactive) | > 10 µM (inactive) | 6.17 µM (inactive) |  | > 10 µM (inactive) | > 10 µM (inactive) | > 10 µM (inactive) | > 10 µM (inactive) | 9.57 µM (inactive) | 7.23 µM (inactive) | > 10 µM (inactive) | 2.89 µM (inactive) | 5.41 µM (inactive) | > 10 µM (inactive) | 9.71 µM (inactive) | 8.77 µM (inactive) |  | > 10 µM (inactive) |
| CCC(=O)N1C(=O)C(CC)(CC)C(=O)N1C(=O)CC | > 100 µM (inactive) | > 100 µM (inactive) | > 100 µM (inactive) | > 100 µM (inactive) | > 100 µM (inactive) | > 100 µM (inactive) | > 100 µM (inactive) | > 100 µM (inactive) | > 100 µM (inactive) | > 100 µM (inactive) | > 100 µM (inactive) | > 100 µM (inactive) | > 100 µM (inactive) | > 100 µM (inactive) | > 100 µM (inactive) | > 100 µM (inactive) | > 100 µM (inactive) | > 100 µM (inactive) | > 100 µM (inactive) | > 100 µM (inactive) |
| CN1CCN(CCCCN2c3ccccc3Sc3ccc(C(=O)c4ccccc4)cc32)CC1 | 1.58 µM (inactive) | 1.95 µM (inactive) | 1.65 µM (inactive) | 1.44 µM (inactive) | 1.64 µM (inactive) | 2.36 µM (inactive) | 1.56 µM (inactive) | 1.6 µM (inactive) | 1.72 µM (inactive) | 1.82 µM (inactive) | 1.91 µM (inactive) | 1.73 µM (inactive) | 2.34 µM (inactive) | 1.85 µM (inactive) | 1.78 µM (inactive) | 2.84 µM (inactive) | 1.8 µM (inactive) | 1.54 µM (inactive) | 2.65 µM (inactive) | 1.75 µM (inactive) |
| Cc1cccc(/C=C2/C(=O)Nc3ccccc32)n1 | 13 µM (inactive) |  | 21.4 µM (inactive) | 11.9 µM (inactive) | 15.4 µM (inactive) | 16.8 µM (inactive) | 10.6 µM (inactive) | 16.6 µM (inactive) |  | 15.1 µM (inactive) | 5.79 µM (inactive) | 16.7 µM (inactive) | 16.3 µM (inactive) | 10.4 µM (inactive) | 12.7 µM (inactive) | 11.9 µM (inactive) | 17.9 µM (inactive) | 12.9 µM (inactive) | 14.3 µM (inactive) | 19.9 µM (inactive) |
| c1ccc2c(c1)Nc1cccc3c1c-2nc1cc2ccccc2cc13 | 1.72 µM (inactive) | 1.8 µM (inactive) | 12.4 µM (inactive) | 1.64 µM (inactive) |  | 1.55 µM (inactive) | 1.72 µM (inactive) | 1.72 µM (inactive) | 1.41 µM (inactive) | 2.12 µM (inactive) | 1.56 µM (inactive) | 2 µM (inactive) | 1.69 µM (inactive) | 1.32 µM (inactive) | 1.98 µM (inactive) | 1.82 µM (inactive) | 1.6 µM (inactive) | 1.7 µM (inactive) | 1.63 µM (inactive) | 1.63 µM (inactive) |
| COc1ccc2oc(OC)c(CC=C(C)C)c(=O)c2c1C | > 100 µM (inactive) | > 100 µM (inactive) | > 100 µM (inactive) | > 100 µM (inactive) | > 100 µM (inactive) | > 100 µM (inactive) | > 100 µM (inactive) | > 100 µM (inactive) | > 100 µM (inactive) | > 100 µM (inactive) | > 100 µM (inactive) | > 100 µM (inactive) | > 100 µM (inactive) | > 100 µM (inactive) | > 100 µM (inactive) | > 100 µM (inactive) | > 100 µM (inactive) | > 100 µM (inactive) | > 100 µM (inactive) | > 100 µM (inactive) |
| N#Cc1c(-c2ccc([N+](=O)[O-])cc2)c(C#N)c(=O)n(NS(=O)(=O)c2ccccc2)c1-c1ccccc1 | > 100 µM (inactive) | > 100 µM (inactive) | > 100 µM (inactive) | > 100 µM (inactive) | > 100 µM (inactive) | > 100 µM (inactive) | > 100 µM (inactive) | > 100 µM (inactive) | > 100 µM (inactive) | > 100 µM (inactive) | > 100 µM (inactive) | > 100 µM (inactive) | > 100 µM (inactive) |  | > 100 µM (inactive) | > 100 µM (inactive) | > 100 µM (inactive) | > 100 µM (inactive) |  | > 100 µM (inactive) |
| COC1=C(Cl)C(=O)c2c(O)ccc(O)c2C1=O | 0.287 µM (active) | 4.01 µM (inactive) | 1.82 µM (inactive) | 0.541 µM (active) | 0.18 µM (active) | 0.902 µM (active) | 13 µM (inactive) | 0.873 µM (active) | 1.7 µM (inactive) | 0.541 µM (active) | 1.04 µM (active) | 1.28 µM (inactive) | 0.478 µM (active) | 1.91 µM (inactive) | 0.119 µM (active) | 3.01 µM (inactive) | 6.43 µM (inactive) | 1.4 µM (inactive) | 1.77 µM (inactive) | 0.212 µM (active) |
| CCOC(=O)c1nc2cc(C(F)(F)F)ccc2nc1Nc1ccc(C(=O)NC(C(=O)OCC)C(=O)OCC)cc1 | 14.3 µM (inactive) |  | 23.6 µM (inactive) | 19 µM (inactive) | 75 µM (inactive) | 26.2 µM (inactive) | 49.4 µM (inactive) | 13.8 µM (inactive) | 20.1 µM (inactive) |  | 19.5 µM (inactive) | 33.6 µM (inactive) | 20 µM (inactive) | 35.5 µM (inactive) | 18.7 µM (inactive) | 45.1 µM (inactive) | 15.5 µM (inactive) | 20.5 µM (inactive) | 30.6 µM (inactive) | 44.4 µM (inactive) |
| CC(=O)O[C@H]1C[C@@H](O[C@H]2[C@@H](O)C[C@H](O[C@H]3[C@@H](O)C[C@H](O[C@H]4CC[C@@]5(C)[C@H](CC[C@@H]6[C@@H]5C[C@@H](O)[C@]5(C)[C@@H](C7=CC(=O)OC7)CC[C@]65O)C4)O[C@@H]3C)O[C@@H]2C)O[C@H](C)[C@H]1O.CC(=O)O[C@H]1[C@@H](O)C[C@@H](O[C@H]2[C@@H](O)C[C@H](O[C@H]3[C@@H](O)C[C@H](O[C@H]4CC[C@@]5(C)[C@H](CC[C@@H]6[C@@H]5C[C@@H](O)[C@]5(C)[C@@H](C7=CC(=O)OC7)CC[C@]65O)C4)O[C@@H]3C)O[C@@H]2C)O[C@@H]1C | 0.0223 µM (active) | 0.0119 µM (active) | 0.0425 µM (active) | 0.0308 µM (active) | 0.617 µM (active) | 0.0175 µM (active) | 0.104 µM (active) | 0.0336 µM (active) | 0.0354 µM (active) | 0.0637 µM (active) | 0.0415 µM (active) | 0.0443 µM (active) | 0.0236 µM (active) | 0.0114 µM (active) | < 0.01 µM (active) | 0.033 µM (active) | 0.0299 µM (active) | 0.0296 µM (active) | 0.0486 µM (active) | 0.0472 µM (active) |
| CCCCOc1ccc(S(=O)(=O)N/C(=N\O)Nc2ccc(Cl)cc2)cc1 | 15.8 µM (inactive) | 16.1 µM (inactive) | 13.4 µM (inactive) | 10.8 µM (inactive) | 19 µM (inactive) | 15.8 µM (inactive) | 14.3 µM (inactive) | 17.9 µM (inactive) |  | 15.2 µM (inactive) | 13.3 µM (inactive) | 15.9 µM (inactive) | 17.7 µM (inactive) | 14.7 µM (inactive) | 14.7 µM (inactive) | 18.6 µM (inactive) | 16.9 µM (inactive) | 14.3 µM (inactive) | 12.2 µM (inactive) | 18.3 µM (inactive) |
